Values quoted from earlier work in patent publication US20130251696A1, “Antioxidant Composition for Reducing Oxidative Stress Ascribable to the Treatment with Hormonal Contraceptive Drugs” (COR.CON. INTERNATIONAL S.R.L., priority 2010, published 2013).

Conditions: principal organs (heart, brain, liver, uterus etc.)

tissue levels as % of blood levels: 8-10%
SMILES: O=C(O[C@@H]1Cc2c(O)cc(O)cc2O[C@@H]1c1cc(O)c(O)c(O)c1)c1cc(O)c(O)c(O)c1 [EGCG, epigallocatechin gallate]
